We go through one compound from patent publication US6949679B1, “Polyamine transport inhibitors” (Universite Laval, priority 1998, dated 2005).

Like-named read-outs stand apart in the source and are kept apart here.

In the test the test system is polyamine transporter. Nature of the test: Inhibition of [3H]spermidine uptake in ZR-75-1 cells. It is filed as cell-based, human. How it is done: The rate of putrescine and spermidine transport was determined in ZR-75-1 cells incubated in serum-free RPMI 1640 medium as described (Lessard, M., Zhao, C., Singh, S. M. and Poulin, R. 1995. J. Biol. Chem. 270: 1685-1694), using [^3H]putrescine (30 Ci/mol) and [^3H]spermidine (20 Ci/mol), respectively as substrates for a 20 minute-assay period. Spermine uptake was similarly determined, using 1 μM [^14C]spermine (32 Ci/mol) as substrate. Uptake activity was expressed per amount of DNA as fluorometrically determined using 3,4-diaminobenzoic acid (Simard, J., Dauvois, S., Haagensen, D. E., Lėvesque, C., Mėrand, Y. and Labrie, F. 1990. Endocrinology, 126: 3223-3231). For the determination of spermidine uptake activity in CHO-K1 cells, 80% confluent cell monolayers were rinsed twice with PBS and incubated for 20 minutes at 37° C. in 400 μl of buffer A (20 mM Tris-HCl, pH 7.4; 0.42 mM CaCl2; 0.41 mM MgSO4; 103 mM NaCl; 5.7 mM KCl; 1.1 mM D-glucose) containing 5 μM [^3H]spermidine (20 Ci/mol). Cell cultures were then washed twice with 1 ml PBS containing 5.7 mM sym-norspermidine. Cells were then lysed with 200-μl aliquot of 1 N NaOH and incubated for 30 minutes at 60° C. After neutralization with 200 μl of 1 N HCl, radioactivity was determined from a 250-μl of the cell lysate by scintillation counting. Uptake activity was expressed per amount of total cellular protein as determined by the method of Bradford (Bradford, M. M. 1976. Anal. Biochem. 72: 248-254). Non-specific binding of radioactive substrate was similarly determined in parallel for both cell lines after a 15 second-incubation with 400 μl of ice-cold uptake solution.
Kinetic analysis of polyamine transport was performed by determining uptake activity in the presence of a 3 μM [^3H]putrescine or 1 μM [^3H]spermidine plus increasing concentrations of nonradioactive substrate. K[…] Ki and Vmax values were then estimated by Lineweaver-Burke analysis. For competitive inhibitors, Ki values were also estimated by measuring uptake activity in the presence of logarithmically increasing concentrations of antagonist, and using the Cheng-Prusoff equation (Cheng, Y.-C. and Prusoff, W. H. 1973. Biochem. Pharmacol. 22: 3099-3108) by iterative curve fitting for a sigmoidal curve. For mixed competitive/noncompetitive inhibition, two methods were used to calculate kinetic constants. First, the equation [drawing 2] where v, s, and i are the transport velocity, substrate concentration and inhibitor concentration respectively, was used to calculate the inhibition constants for inhibitor/carrier complex formation (Ki) and carrier/inhibitor/substrate complex formation (Ki′) (Dixon, M. and Webb, E. C. 1976. Enzymes, 3rd Ed., Academic Press, San Diego, Calif.). […]
In order to evaluate the effectiveness of dimeric triamines as polyamine transport inhibitors, we synthesized N,N′-bis(3-aminopropyl),N,N′-bis(4-aminobutyl)cystamine or BABAC (structure 1, FIG. 25; FIG. 31), and its thiol form N-(3-aminopropyl),N-(4-aminobutyl)cysteamine or AAC (FIG. 31) according to Scheme 4 described above (FIG. 30), using spermidine as a precursor polyamine. The ability of BABAC and AAC to inhibit the intracellular uptake of radio-labeled putrescine and spermidine in the ZR-75-1 human breast cancer cell line was then determined according to standard published procedures (Lessard, et al. and Poulin, et al.) Briefly, ZR-75-1 cells were grown for four days in twenty-four well plates in RPMI 1640 medium supplemented with 10% fetal bovine serum.

As to `NCCCNCCCC(NCCCN)C(=O)NCCSSCCNC(=O)C(CCCNCCCN)NCCCN` (centres unmarked) [DESC, 2,2′-dithiobis(N-ethyl-spermine-5-carboxamide)], the Ki (FIG. 32, 20 μM and 3 μM substrate, respectively, read-out: Apparent Ki, spermidine uptake) came to 5.6 µM; the Ki (this work, read-out: Ki, spermidine transport) came to 2.7 ± 1.1 µM.
